The values that follow come from patent US7708998B2, “Methods of inhibiting unwanted cell proliferation using hedgehog antagonists” (Curis, Inc., priority 2000, dated 2010).

The test system of the first assay is Shh-induced Gli-transcription. Kind of assay: Gli-Luc assay in 10T1/2(s12) cells activated with OCT-SHH. It is filed as cell-based. To be noted: Gli-Luc response, OCT-SHH 0.3 μg/ml. Here is the method:
Compounds to be tested are dissolved in DMSO to a concentration of 10 mM, and stored at −20° C. To activate the Hedgehog pathway in the assay cells, an octylated (lipid-modified) form of the N-terminal fragment of the Sonic Hedgehog protein (OCT-SHH) is used. This N-terminal SHH fragment is produced bacterially.
Compounds may be tested in the “Gli-Luc” assay below, using the cell line 10T(s12), wherein the cells contain a Hedgehog-responsive reporter construct utilizing Luciferase as the reporter gene. In this way, Hedgehog pathway signaling activity can be measured via the Gli-Luc response.
10t1/2(s12) cells are plated in a 96-well micro-titer plate (MTP) at 20,000 cells/well in full medium [DMEM with 10% FBS]. Then plates are placed in the incubator for incubation overnight (O/N), at 37° C. and 5% CO2. After 24 h, the medium is replaced with Luciferase-assay medium (DMEM with 5% FBS). Compounds are thawed and diluted in assay medium at 3:1000 (about 300-fold) resulting in a starting concentration of about 30 μM.
Subsequently, 150 μl of each 30 μM sample is added to the first wells (in triplicate). The MTP samples are then diluted at 3-fold dilutions to a total of seven wells, ultimately resulting in a regiment of seven dilutions in triplicate, for each compound. Next, the protein ligand OCT-SHH is diluted in Luciferase-assay medium and added to each well at a final concentration of 0.3 μg/ml. Plates are then returned to the incubator for further incubation O/N, at 37° C. and 5% CO2. After about 24 h, plates are removed from the incubator and the medium is aspirated/discarded. Wells are washed once with assay buffer [PBS+1 mM Mg^2+ and 1 mM Ca^2+]. Then 50 μl of assay buffer is added to each well. The Luciferase assay reagent is prepared as described by the vendor (LucLite kit from Packard), and 50 μl is added to each well. Plates are incubated at room temperature (RT) for about 30 minutes after which the signals are read, again at RT, on a Topcount (Packard).
For `CCCN(CCC(=O)NC1CCCc2ccccc21)C(=O)c1cc(OC)cc(OC)c1` (stereo not drawn) [Compound 47], the IC50 was < 5 µM.

Take `O=C(NCCCc1nc2ccccc2c(=O)n1-c1ccc(F)cc1)Nc1cccc(C(F)(F)F)c1` [Compound 74]: the IC50 was < 5 µM.

Regarding `CCCCc1ccc(C(=O)N(Cc2ccccc2)C(CC)c2nc3ccccc3c(=O)n2-c2ccc(C)cc2)cc1` (stereo not drawn) [Compound 40], the IC50 is < 10 µM.

Consider `CC(c1nc2ccccc2c(=O)n1-c1ccc(F)cc1)N(C)C(=O)Nc1ccc(-c2ccccc2)cc1` (stereo not drawn) [Compound 56], for which the IC50 is < 10 µM.

On to `CCC(=O)N1CCN(C(CC)c2nc3ccccc3c(=O)n2-c2ccc(C)cc2)C(C)C1` (stereo not drawn) [Compound 42], for which the IC50 is < 5 µM.

In the case of `O=C(NCc1nc2ccccc2c(=O)n1-c1ccc(F)cc1)Nc1ccc(Cl)c([N+](=O)[O-])c1` [Compound 69], the IC50 was < 0.5 µM.

Consider `O=C(Nc1cccc(C(F)(F)F)c1)NC(c1nc2ccccc2c(=O)n1-c1ccc(F)cc1)C1CC1` (stereo not drawn) [Compound 75], for which the IC50 was < 5 µM.

As for `Cc1c(NC(=O)N(C)C(C)c2nc3ccccc3c(=O)n2-c2ccc(F)cc2)cccc1[N+](=O)[O-]` (stereo not drawn) [Compound 59], the IC50 was < 5 µM.

As for `CC(c1nc2ccccc2c(=O)n1-c1ccc(F)cc1)N(C)C(=O)Nc1ccc(Cl)c(C(F)(F)F)c1` (stereo not drawn) [Compound 61], the IC50 is < 1 µM.

Regarding `Cc1c(NC(=O)NCc2nc3ccccc3c(=O)n2-c2ccc(F)cc2)cccc1SC(F)(F)F` [Compound 67], the IC50 is < 5 µM.

As for `CCCN(C(=O)Nc1cccc(C(F)(F)F)c1)C(C)c1nc2ccccc2c(=O)n1-c1ccc(F)cc1` (stereo not drawn) [Compound 36], the IC50 is < 5 µM.

Take `O=C(NCc1nc2ccccc2c(=O)n1-c1ccc(F)cc1)Nc1ccc(Cl)c(Cl)c1` [Compound 68]: the IC50 is < 1 µM.

Regarding `CC(c1nc2ccccc2c(=O)n1-c1ccc(F)cc1)N(C)C(=O)Nc1cccc(C(F)(F)F)c1` (stereo not drawn) [Compound 11], the IC50 is < 5 µM.

Turning to `CC(c1nc2ccccc2c(=O)n1-c1ccc(F)cc1)N(C)C(=O)Nc1ccc([N+](=O)[O-])cc1Cl` (stereo not drawn) [Compound 64], the IC50 was < 10 µM.

For the compound `CCC(c1nc2ccccc2c(=O)n1-c1ccc(C)cc1)N(CCc1ccccc1)C(=O)CCCCF` (stereo not drawn) [Compound 39], the IC50 was < 5 µM.

Regarding `CC(NC(=O)Nc1cccc(C(F)(F)F)c1)c1nc2ccccc2c(=O)n1-c1ccc(F)cc1` (stereo not drawn) [Compound 73], the IC50 is < 5 µM.

On to `CC(c1nc2ccccc2c(=O)n1-c1ccc(F)cc1)N(C)C(=O)Nc1cccc(C#N)c1` (stereo not drawn) [Compound 51], for which the half-inhibitory concentration (IC50) is < 5 µM.

Consider `CC(c1nc2ccccc2c(=O)n1-c1ccc(F)cc1)N(C)C(=O)Nc1cccc(F)c1` (stereo not drawn) [Compound 55], for which the IC50 is < 5 µM.

Consider `CC(c1nc2ccccc2c(=O)n1-c1ccc(F)cc1)N(C)C(=O)Nc1ccc(SC(F)(F)F)cc1` (stereo not drawn) [Compound 60], for which the half-inhibitory concentration (IC50) was < 5 µM.

On to `CCC(C)N(CCC(=O)NC1CCCc2ccccc21)C(=O)c1cccc2ccccc12` (stereo not drawn) [Compound 48], for which the concentration for half-maximal inhibition (IC50) was < 0.5 µM.

Turning to `CCOOC(=O)c1cccc(NC(=O)N(C)C(C)c2nc3ccccc3c(=O)n2-c2ccc(F)cc2)c1` (stereo not drawn) [Compound 65], the IC50 is < 10 µM.

On to `CC(c1nc2ccccc2c(=O)n1-c1ccc(F)cc1)N(C)C(=O)Nc1ccc(Cl)cc1[N+](=O)[O-]` (stereo not drawn) [Compound 66], for which the IC50 was < 10 µM.

On to `O=C(NCc1nc2ccccc2c(=O)n1-c1ccc(F)cc1)Nc1cc(Cl)nc(Cl)c1` [Compound 6], for which the IC50 is < 0.5 µM.

Regarding `CC(c1nc2ccccc2c(=O)n1-c1ccc(F)cc1)N(C)C(=O)Nc1ccc([N+](=O)[O-])c(C(F)(F)F)c1` (stereo not drawn) [Compound 32], the IC50 was < 5 µM.

Consider `CC(c1nc2ccccc2c(=O)n1-c1ccc(F)cc1)N(C)C(=O)Nc1cccc(SC(F)(F)F)c1` (stereo not drawn) [Compound 52], for which the IC50 was < 1 µM.

As to `CCCN(C(=O)Nc1cccc(Cl)c1)C(C)c1nc2ccccc2c(=O)n1-c1ccc(F)cc1` (stereo not drawn) [Compound 34], the IC50 is < 5 µM.

Consider `CC(c1nc2ccccc2c(=O)n1-c1ccc(F)cc1)N1CCN(C(=O)Nc2ccc(Cl)c(Cl)c2)CC1` (stereo not drawn) [Compound 43], for which the IC50 is < 10 µM.

`CCC(c1nc2ccccc2c(=O)[nH]1)N1CCN(C(=O)c2ccc(-c3ccccc3)cc2)C(C)C1` (stereo not drawn) [Compound 46]: the IC50 was < 0.5 µM.

With `O=C(NCc1nc2ccccc2c(=O)n1-c1ccc(F)cc1)Nc1ccc(Cl)c(C(F)(F)F)c1` [Compound 5], the IC50 is < 0.1 µM.

For `CCCN(C(=O)Nc1cccc(OC)c1)C(C)c1nc2ccccc2c(=O)n1-c1ccc(F)cc1` (stereo not drawn) [Compound 38], the concentration for half-maximal inhibition (IC50) was < 5 µM.

Take `CC(c1nc2ccccc2c(=O)n1-c1ccc(F)cc1)N(Cc1ccco1)C(=O)Nc1cccc(F)c1` (stereo not drawn) [Compound 31]: the 50% inhibitory concentration (IC50) is < 10 µM.

On to `CC(c1nc2ccccc2c(=O)n1-c1ccc(F)cc1)N(C)C(=O)Nc1cc(Cl)nc(Cl)c1` (stereo not drawn) [Compound 58], for which the IC50 is < 5 µM.

Regarding `CCC(c1nc2ccccc2c(=O)[nH]1)N1CCN(C(=O)Nc2ccc(Cl)c(Cl)c2)C(C)C1` (stereo not drawn) [Compound 45], the IC50 is < 5 µM.

In the case of `O=C(NCc1nc2ccccc2c(=O)n1-c1ccc(F)cc1)Nc1cccc(C(F)(F)F)c1` [Compound 44], the IC50 is < 1 µM.

For the compound `CCC(C)N(CCC(=O)NC1CCCc2ccccc21)C(=O)COc1ccc(Cl)cc1` (stereo not drawn) [Compound 49], the IC50 was < 1 µM.

For the compound `CC(C)c1cccc(NC(=O)N(C)C(C)c2nc3ccccc3c(=O)n2-c2ccc(F)cc2)c1` (stereo not drawn) [Compound 57], the 50% inhibitory concentration (IC50) was < 10 µM.

On to `COc1cccc(NC(=O)NCc2nc3ccccc3c(=O)n2-c2ccc(F)cc2)c1C` [Compound 71], for which the 50% inhibitory concentration (IC50) is < 10 µM.

Turning to `CCCCCCCCC(=O)N(CCCCC)C(C)c1nc2ccccc2c(=O)n1-c1ccccc1` (stereo not drawn) [Compound 41], the IC50 is < 10 µM.

For the compound `CC(c1nc2ccccc2c(=O)n1-c1ccc(F)cc1)N(C)C(=O)Nc1ccc(Cl)c(Cl)c1` (stereo not drawn) [Compound 53], the IC50 is < 1 µM.

In the case of `CCOC(=O)c1ccccc1NC(=O)N(C)C(C)c1nc2ccccc2c(=O)n1-c1ccc(F)cc1` (stereo not drawn) [Compound 63], the IC50 is < 10 µM.

Take `CC(c1nc2ccccc2c(=O)n1-c1ccc(F)cc1)N(C)C(=O)Nc1ccc(C(F)(F)F)cc1` (stereo not drawn) [Compound 54]: the IC50 was < 5 µM.

Take `O=C(Cc1cccc(C(F)(F)F)c1)NCCc1nc2ccccc2c(=O)n1-c1ccc(F)cc1` [Compound 50]: the IC50 is < 1 µM.

`CC(c1nc2ccccc2c(=O)n1-c1ccc(F)cc1)N(C)C(=O)Nc1ccc([N+](=O)[O-])c(Cl)c1` (stereo not drawn) [Compound 62]: the IC50 is < 1 µM.

Another assay deals with hedgehog signaling in embryonic mouse lungs. Nature of the assay: embryonic mouse lung explants, Q-RT-PCR of gli-1 and Sp-C. It is filed as cell-based. To be noted: E13.5 mouse lung explants, Q-RT-PCR normalized to GAPDH. Here is the method:
METHODS: E13.5 embryonic mouse lungs were dissected. Explants were grown exposed to the air-liquid interface in lung explant medium (DMEM based, additives optimized for the culture of mouse lungs) for 67 hrs. They were then processed for quantitative real-time PCR (Q-RT-PCR). Briefly, total ribonucleic acid (RNA) is isolated from the tissue and subjected to reverse transcription to generate DNA. This DNA is amplified in a polymerase chain reaction using gene-specific primers as well as primers for the ubiquitously expressed housekeeping gene GAPDH. The two primer sets are labeled with different fluorophores, allowing for quantification of both signals in the same reaction tube in a real-time PCR machine (TaqMan). When calculating the expression level of gli-1, the specific signal is normalized to the GAPDH signal, which serves as a measure of the total DNA used in the reaction.
METHODS: E13.5 old embryonic mouse lungs were dissected. Explants were grown submerged in lung explant medium (DMEM based, additives optimized for the culture of mouse lungs) for 50 hrs. They were then processed for Q-RT-PCR. Briefly, total ribonucleic acid (RNA) is isolated from the tissue and subjected to reverse transcription to generate DNA. […] The two primer sets are labeled with different fluorophores, allowing for quantification of both signals in the same reaction tube in a real-time PCR machine (TaqMan). […]
With `C[C@]12CCC(=O)C=C1CC[C@@H]1[C@@H]2[C@@H](O)C[C@@]2(C)[C@H]1CC[C@]2(O)C(=O)CO` [hydrocortisone], the “surfactant type C (Sp-C) expression” value was “comparable”.

Another assay deals with Shh signaling pathway in MEFs homozygous for ptc-lacZ. Kind of assay: β-galactosidase activity in ptc-lacZ mouse embryonic fibroblasts. Particulars: MEFs homozygous for ptc-lacZ (cell line 23-1), normalized to whole protein content. Type of assay: cell-based.
Source text: The Shh signaling pathway can be activated in these fibroblasts in cell culture, and that the level of β-galactosidase activity does reflect the degree of pathway activation.
Consider `C[C@H]1CC[C@]2(NC1)O[C@H]1C[C@H]3[C@@H]4CC[C@H]5C[C@@H](O)CC[C@]5(C)[C@H]4CC[C@]3(C)[C@H]1[C@@H]2C` [tomatidine], for which the β-galactosidase activity result was “non-inhibitory”.

Usually IC50 stands for the concentration that gives 50% inhibition. Low values mean greater potency, high ones weaker potency.
